For test [1], the system named is acetic acid writhing response in mice. Briefly: animal or person. The test is classed as in vivo, Kunming mice. As for the experimental part: In the hot-plate test, a animal is positioned on a hot plate and is exposed to a standard heat source, and the time that the animal voluntarily endures the heat, prior to licking its paws, is recorded. In the acid-writhing test, the animal is injected into the intraperitoneal cavity and results in a writhing response. For the tail-flick test the animal's tail is subjected to heat or electrical stimulus and the time taken for the animal to remove its tail away from the noxious stimulus is recorded. Analgesics, particularly opioid analgesics, will prolong these times relative to controls.
The mice were randomly divided into 5 groups (n=10 in each group): saline control, acetylsalicylic acid 400 mg/kg^−1, crotoxin 66.5, 44.3, or 29.5 mcg.kg^−1 −1. Pain threshold was measured 3 h after drug administration.
The mice were randomly divided into 2 groups (n=10 in each group): saline control and crotoxin 0.3 mcg.kg^−1 −1. The effects of crotoxin on pain threshold were measured 1 hour after crotoxin or saline administration.
The mice were randomly divided into 4 groups (n=10 in each group): saline control, crotoxin 44.3 mcg.kg^−1 −1, acetylsalicylic acid (Ace) 300 mg/kg^−1, and crotoxin+acetylsalicylic acid. Acetylsalicylic acid 300 mg/kg^−1 (im) and crotoxin 44.3 mcg.kg^−1 −1 (im) were administrated at the same time. Pain threshold was determined 2 h after crotoxin administration.

The test system of test [2] is pain response in mice induced by Hot Plate. The class given is in vivo, Kunming mice. Particulars: for Pain thresholds: Acetylsalicylic acid 400 mg·kg−1; for Pain threshold, Baseline: before drugs; for Pain threshold, After drug administration: crotoxin 44.3 μg·kg−1; for Time lapse before pain response: Dolantin 40000 μg/kg ip.
The conditions of test [3]: in vivo; cited from earlier work.
Another test relates to animal models of pain. Briefly: Crotamine in animal models of pain. The test is classed as in vivo. To be noted: applicant's own studies vs published observations. An excerpt: The analgesic effect of snake venom proteins has been known since antiquity and several authors have pointed out the efficiency of the administration of crude cobra or rattlesnake venoms in the treatment of trigeminal neuralgias, tabetic and pain caused by tumors. In the cases of tumoral pains, the patients could be maintained without the administration of morphine in 70% of the cases. Obviously, at the time, crude venoms were employed without even an adequate knowledge of the source or mechanism. Sometimes venoms from cobras captured in India or South Africa were employed indistinctly (see, Haast, U.S. Pat. No. 4,341,762). […] With respect to crotamine, it was assumed that this represented the anti-nociceptive component of Crotalus durissus terrificus venom.

One may read the inhibition as the percentage by which the read-out fell short of the control.

Values joined by “and” are separate entries in the source; they are usually repeats but may differ in a detail not shown here. Equal entries are not always repeated. Structures can show the parent of a compound that is named as a salt. Where two headings read alike, the source gives them in different places.

As to `CC(=O)Oc1ccccc1C(=O)O` [Acetylsalicylic acid, acetylsalicylic acid], the “The number of writhings after administration” value in test [1] (Acetylsalicylic acid 400 mg·kg−1, 3 h after drug administration) amounted to 8.80 ± 6.36 times/10 min. The inhibition at 400 mg/kg in test [1] (Mus musculus, 3 h, read-out: Percentage inhibition compared with control group) was 70.1%. Also, in test [1] (acetylsalicylic acid 300 mg/kg (ip)), the “effect on the analgesic effects of crotoxin” value is “significantly enhanced”. In test [1] (acetylsalicylic acid 300 mg/kg, crotoxin 44.3 mcg/kg, given at the same time), the “analgesic effect, acetylsalicylic acid study” value is “significant analgesic effects”. The “The number of writhings” value in test [1] (crotoxin 44.3 μg·kg−1 and acetylsalicylic acid (table: 0.3 mg·kg−1; text: 300 mg/kg) given at the same time, 2 h after crotoxin) is given as 12.13 ± 9.04 times/10 min. Moreover, the Pain thresholds in test [2] (1 h after administration) amounted to 28.12 ± 6.95 s; in test [2] (2 h after administration), 24.50 ± 14.14 s; in test [2] (3 h after administration) it was 26.22 ± 14.32 s; in test [2] (Baseline) it was 17.36 ± 2.72 s.
For the molecule `CN1[C@@H]2CC[C@H]1C[C@@H](OC(=O)C(CO)c1ccccc1)C2` (stereo partly shown) [Atropine, atropine], in test [2] (atropine 0.5 mg/kg (im)), the “effect of atropine alone on the pain threshold” value is listed as “no significant effect”. The “Pain threshold, Baseline” value in test [2] (atropine study) was determined as 16.87 ± 3.10 s. In test [2] (atropine 0.5 mg·kg−1 or NS (im) 1.5 h after crotoxin, determined 1.5 h after atropine), the “Pain threshold, After drug administration” value stood at 18.46 ± 3.25 s.
As to `CCOC(=O)C1(c2ccccc2)CCN(C)CC1` [Dolantin, Meperidine hydrochloride], the “Time lapse before pain response” value in test [2] (30 min after drug, hydrochloride) was 56 s and 56.14 s; in test [2] (60 min after drug), 55.49 s; in test [2] (90 min after drug, hydrochloride) it was 36 s and 36.36 s; in test [2] (120 min after drug, hydrochloride) it was 34 s and 34.03 s; in test [2] (Pre-drug, hydrochloride), 13.2 s and 13.20 s. For the same molecule, the “analgesic potency relative to morphine” value in test [3] was “one-tenth as potent an analgesic as morphine”. Besides, the duration in test [3] was 2 to 4 h. In addition, in test [3], the onset of activity was 10 to 45 min.
With `C=CCN1CC[C@]23c4c5ccc(O)c4O[C@H]2C(=O)CC[C@@]3(O)[C@H]1C5` [Naloxone, Naloxone hydrochloride], the “Pain threshold, After drug administration” value in test [2] (naloxone 3 mg·kg−1 or NS (i.p.) 2.5 hours after crotoxin, determined 30 minutes after naloxone) came to 19.04 ± 4.88 s. Moreover, in test [2] (naloxone 3 mg/kg (ip)), the “effect of naloxone alone on the pain threshold” value is “no significant influence”. The “effect on the analgesia induced by crotoxin” value in test [2] (naloxone (ip)) is “had no effect”. Also, in test [2] (naloxone study), the “Pain threshold, Baseline” value came out at 16.97 ± 3.64 s.
On to “crotamine (YKQCHKKGGHCFPKEKICLPPSSDFGKMDCRWRWKCCKKGSG; UniProt Q9PWF3 23-64, looked up)”, for which the “antinociceptive properties” value in the test on animal models of pain is “failed to confirm these published observations”.

Source of the values: patent US20060034823A1, “Method of production and use of crotoxin as an analgesic” (priority 2004, published 2006).
